Test results: patent US12037339B2, “Substituted imidazoles as GLP-1 receptor agonists” (Eccogene Inc., priority 2020, dated 2024)

Biological target: (Homo sapiens, UniProt P43220)
Test: h-GLP-1 activity assay (cAMP HTRF, HEK293 cells with stable expression of human GLP-1)
Assay type: cell-based
Conditions: relative EC50, 10 nM human GLP-1 set as 100% response, 30 min at 37° C.
Procedure: Human GLP-1 agonizing activity was detected in HEK293 cells with stable expression of human GLP-1 by Cisbio cAMP Gs dynamic kit (Catalog #62AM4PEC) according to manufacturer's protocol. Briefly, cells were collected and resuspended in assay buffer containing 0.1% BSA and 0.5 mM of IBMX at concentration to 2.5×10^5 cells/mL. Two μL 5× compound solution and 8 μL cell suspension were added to each well of low-volume 384 white assay plate. After 30 min incubation at 37° C., 5 μL cAMP-d2 working solution and 5 μL anti-cAMP antibody-cryptate were added to each well, and incubate at room temperature for 1 hr. Series dilution of cAMP was used as standard. Human GLP-1 (7-37) was used as positive control and 10 nM human GLP-1 was set as 100% response. HTRF signals were read at 665 and 615 nm with EnVision plate reader and calculated cAMP concentration by interpolation to the standard curve. The EC50 value of the tested compounds was calculated by fitting the dose response curve using a 4-parameter non-linear regression routine and relative EC50 was presented in Table 29.

Chain of (Homo sapiens, UniProt P43220) (P43220 24-463): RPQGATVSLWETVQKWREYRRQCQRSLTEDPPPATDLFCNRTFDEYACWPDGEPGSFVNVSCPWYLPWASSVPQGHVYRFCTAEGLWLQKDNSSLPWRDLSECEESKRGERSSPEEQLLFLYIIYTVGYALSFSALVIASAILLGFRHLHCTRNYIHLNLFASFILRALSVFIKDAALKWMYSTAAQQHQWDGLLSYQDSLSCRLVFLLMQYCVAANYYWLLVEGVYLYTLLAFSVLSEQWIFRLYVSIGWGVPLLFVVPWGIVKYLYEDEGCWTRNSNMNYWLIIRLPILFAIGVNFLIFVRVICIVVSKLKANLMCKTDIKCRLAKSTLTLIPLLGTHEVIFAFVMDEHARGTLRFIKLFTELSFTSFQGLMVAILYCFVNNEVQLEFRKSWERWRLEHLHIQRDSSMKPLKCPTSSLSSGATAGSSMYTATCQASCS

| EC50 | Compound |
| --- | --- |
| < 20 nM | C[C@H]1c2c(-n3ccn(-c4ccc5c(cnn5C)c4F)c3=O)c(-c3ccc(F)cc3)nn2CCN1C(=O)c1cn2cc([C@@H]3CCOC(C)(C)C3)ccc2c1C1(c2noc(=O)[nH]2)CC1 (single isomer, unassigned) [Compound 14] |
| 20 to 100 nM | Cc1cc(-n2nc3c(c2-n2ccn(-c4ccn5cncc5c4)c2=O)[C@H](C)N(C(=O)c2cn4cc([C@H]5CCOC(C)(C)C5)ccc4c2C2(c4noc(=O)[nH]4)CC2)CC3)cc(C)c1F (single isomer, unassigned) [Compound 16] |
| < 20 nM | Cc1cc(-n2nc3c(c2-n2ccn(-c4ccn5c(C)ncc5c4)c2=O)[C@H](C)N(C(=O)c2cn4cc([C@@H]5CCOC(C)(C)C5)ccc4c2C2(c4noc(=O)[nH]4)CC2)CC3)cc(C)c1F (single isomer, unassigned) [Compound 17] |
| < 20 nM | Cc1cc(-n2nc3c(c2-n2ccn(-c4ccn5c(C)ncc5c4)c2=O)[C@H](C)N(C(=O)c2cn4cc([C@H]5CCOC(C)(C)C5)ccc4c2C2(c4noc(=O)[nH]4)CC2)CC3)cc(C)c1F (single isomer, unassigned) [Compound 18] |
| 20 to 100 nM | Cc1cc(-n2nc3c(c2-n2ccn(-c4ccc5c(cnn5C)c4F)c2=O)[C@H](C)N(C(=O)c2cn4cc([C@H]5CCOC(C)(C)C5)ccc4c2C2(c4noc(=O)[nH]4)CC2)CC3)cc(C)c1F (single isomer, unassigned) [Compound 20] |
| < 20 nM | Cc1cc(-n2nc3c(c2-n2ccn(-c4ccc5c(cnn5C)c4F)c2=O)[C@H](C)N(C(=O)c2cn4cc([C@@H]5CCOC(C)(C)C5)ccc4c2Cc2noc(=O)[nH]2)CC3)cc(C)c1F (single isomer, unassigned) [Compound 21] |
| 20 to 100 nM | Cc1cc(-n2nc3c(c2-n2ccn(-c4ccc5c(cnn5C)c4F)c2=O)[C@H](C)N(C(=O)c2cn4cc([C@H]5CCOC(C)(C)C5)ccc4c2Cc2noc(=O)[nH]2)CC3)cc(C)c1F (single isomer, unassigned) [Compound 22] |
| < 20 nM | Cc1cc(-c2nn3c(c2-n2ccn(-c4ccc5c(cnn5C)c4F)c2=O)[C@@H](C)N(C(=O)c2cc4cc([C@@H]5CCOC(C)(C)C5)ccc4n2C2(c4noc(=O)[nH]4)CC2)CC3)cc(C)c1F (single isomer, unassigned) [Compound 24] |
| > 100 nM | Cc1cc(-c2nn3c(c2-n2ccn(-c4ccc5c(cnn5C)c4F)c2=O)[C@H](C)N(C(=O)c2cc4cc([C@@H]5CCOC(C)(C)C5)ccc4n2C2(c4noc(=O)[nH]4)CC2)CC3)cc(C)c1F (single isomer, unassigned) [Compound 25] |
| < 20 nM | Cc1cc(-c2nn3c(c2-n2ccn(-c4ccc5c(cnn5C)c4F)c2=O)[C@H](C)N(C(=O)c2cc4cc([C@@H]5CCOC(C)(C)C5)ccc4n2C2(c4noc(=O)[nH]4)CC2)CC3)ccc1F (single isomer, unassigned) [Compound 26] |
| > 100 nM | Cc1cc(-c2nn3c(c2-n2ccn(-c4ccc5c(cnn5C)c4F)c2=O)[C@@H](C)N(C(=O)c2cc4cc([C@@H]5CCOC(C)(C)C5)ccc4n2C2(c4noc(=O)[nH]4)CC2)CC3)ccc1F (single isomer, unassigned) [Compound 27] |
| 20 to 100 nM | COc1ccc(-c2nn3c(c2-n2ccn(-c4ccc5c(cnn5C)c4F)c2=O)C(C)N(C(=O)c2cc4cc([C@@H]5CCOC(C)(C)C5)ccc4n2C2(c4noc(=O)[nH]4)CC2)CC3)cc1 (single isomer, unassigned) [Compound 28] |
| 20 to 100 nM | COCC12CCC(n3ccn(-c4c(-c5ccc(F)cc5)nn5c4[C@H](C)N(C(=O)c4cc6cc([C@@H]7CCOC(C)(C)C7)ccc6n4C4(c6noc(=O)[nH]6)CC4)CC5)c3=O)(CC1)CC2 (single isomer, unassigned) [Compound 29] |
| > 100 nM | C[C@H]1c2c(-n3ccn(-c4ccc5c(cnn5C)c4F)c3=O)c(-c3ccc(F)cc3)nn2CCN1C(=O)c1cc2cc([C@H]3CCOC(C)(C)C3)ccc2n1C1(c2noc(=O)[nH]2)CC1 (single isomer, unassigned) [Compound 31] |
| > 100 nM | C[C@@H]1c2c(-n3ccn(-c4ccc5c(cnn5C)c4F)c3=O)c(-c3ccc(F)cc3)nn2CCN1C(=O)c1cc2cc([C@H]3CCOC(C)(C)C3)ccc2n1C1(c2noc(=O)[nH]2)CC1 (single isomer, unassigned) [Compound 32] |
| < 20 nM | C[C@H]1c2c(-n3ccn(-c4ccc5c(cnn5C)c4F)c3=O)c(-c3ccc(F)cc3)nn2CCN1C(=O)c1cc2cc([C@@H]3CCOC(C)(C)C3)ccc2n1C1(c2noc(=O)[nH]2)CC1 (single isomer, unassigned) [Compound 33] |
| > 100 nM | C[C@@H]1c2c(-n3ccn(-c4ccc5c(cnn5C)c4F)c3=O)c(-c3ccc(F)cc3)nn2CCN1C(=O)c1cc2cc([C@@H]3CCOC(C)(C)C3)ccc2n1C1(c2noc(=O)[nH]2)CC1 (single isomer, unassigned) [Compound 34] |
| < 20 nM | C[C@H](c1ccc(F)cc1)n1nc2c(c1-n1ccn(-c3ccc4c(cnn4C)c3F)c1=O)[C@H](C)N(C(=O)c1cc3cc([C@@H]4CCOC(C)(C)C4)ccc3n1C1(c3noc(=O)[nH]3)CC1)CC2 (single isomer, unassigned) [Compound 38] |
| > 100 nM | C[C@H]1c2c(nn([C@@H](C)c3ccc(F)cc3)c2-n2ccn(-c3ccc4c(cnn4C)c3F)c2=O)CCN1C(=O)c1cc2cc([C@H]3CCOC(C)(C)C3)ccc2n1C1(c2noc(=O)[nH]2)CC1 (single isomer, unassigned) [Compound 39] |
| < 20 nM | C[C@H]1c2c(nn([C@@H](C)c3ccc(F)cc3)c2-n2ccn(-c3ccc4c(cnn4C)c3F)c2=O)CCN1C(=O)c1cc2cc([C@@H]3CCOC(C)(C)C3)ccc2n1C1(c2noc(=O)[nH]2)CC1 (single isomer, unassigned) [Compound 40] |
| > 100 nM | C[C@H](c1ccc(F)cc1)n1nc2c(c1-n1ccn(-c3ccc4c(cnn4C)c3F)c1=O)[C@H](C)N(C(=O)c1cc3cc([C@H]4CCOC(C)(C)C4)ccc3n1C1(c3noc(=O)[nH]3)CC1)CC2 (single isomer, unassigned) [Compound 41] |
| > 100 nM | C[C@H]1c2c(nn(C3CCC(F)(F)CC3)c2-n2ccn(-c3ccc4c(cnn4C)c3F)c2=O)CCN1C(=O)c1cc2cc([C@H]3CCOC(C)(C)C3)ccc2n1C1(c2noc(=O)[nH]2)CC1 (single isomer, unassigned) [Compound 43] |
| < 20 nM | C[C@H]1c2c(nn(C3CCC(F)(F)CC3)c2-n2ccn(-c3ccc4c(cnn4C)c3F)c2=O)CCN1C(=O)c1cc2cc([C@@H]3CCOC(C)(C)C3)ccc2n1C1(c2noc(=O)[nH]2)CC1 (single isomer, unassigned) [Compound 44] |
| > 100 nM | Cc1cc(-n2nc3c(c2-n2ccn(-c4ccc5c(cnn5C)c4F)c2=O)[C@H](C)N(C(=O)c2cc4cc([C@H]5CCOC(C)(C)C5)ccc4n2Cc2cnc(O)s2)CC3)cc(C)c1F (single isomer, unassigned) [Compound 45] |
| 20 to 100 nM | Cc1cc(-n2nc3c(c2-n2ccn(-c4ccc5c(cnn5C)c4F)c2=O)[C@H](C)N(C(=O)c2cc4cc([C@@H]5CCOC(C)(C)C5)ccc4n2Cc2cnc(O)s2)CC3)cc(C)c1F (single isomer, unassigned) [Compound 46] |
| < 20 nM | C[C@@H]1c2c(-n3ccn(-c4ccc5c(cnn5C)c4F)c3=O)c(-c3ccc(F)c(Cl)c3)nn2CCN1C(=O)c1cc2cc([C@@H]3CCOC(C)(C)C3)ccc2n1C1(c2noc(=O)[nH]2)CC1 (single isomer, unassigned) [Compound 49] |
